Source: US11998595B2, “Telomerase polypeptide vaccine for treating cancer” (Ultimovacs AS, priority 2010, dated 2024)

Tests used:
[1] = tested on: stage IV lung cancer patients; assay: Clinical course of vaccinated lung cancer patients; type: in vivo, human; set-up: key to Clinical response: PD = Progressive disease; SD = Stable disease; PR = Partial response; CR = Complete response
Method: A comparison of the patients studied in Example 4 was carried out. In brief, seven patients were identified as clinical responders following a cancer diagnosis and vaccination with an hTERT vaccine. These patients were identified based on a combination of prolonged survival and clinical response. The clinical response could either be stable disease (SD), partial response (PR) or complete response (CR). The vaccinated melanoma patients were diagnosed with stage IV at the time of inclusion in the clinical trial, but had no brain metastases. Lung cancer patient P5 was diagnosed with stage IV, inoperable lung cancer and colon cancer patient P1 with late stage inoperable colon cancer. Lung cancer patient P6 was a stage IV lung cancer patient with a 12-week life expectancy. Pancreas cancer patient P1 had relapsed, inoperable pancreas cancer and a life expectancy of 8-10 months. Four of the patients (designated Melanoma P7-P8, Lung cancer P5 and Colon cancer P1) had each been vaccinated with the peptide GV1001 (SEQ ID NO. 10). The fifth patient (designated Lung cancer P6) and the sixth patient (designated Pancreas cancer 1) had been vaccinated with dendritic cells transfected with mRNA encoding hTERT. The seventh patient, Melanoma patient P9, had not been vaccinated at the time of the study and instead developed a spontaneous response following development of the cancer. (An eighth and final patient was also identified as a clinical responder but samples from this patient were not available for study.)
(§1) Four patients who were clinical non-responders following a lung cancer diagnosis and a GV1001 (SEQ ID NO. 10) peptide vaccination were studied. These patients were all stage IV lung cancer patients vaccinated with GV1001. […] The proliferative T-cell responses of each patient to a series of peptides were determined in the same manner as in Example 1, at one time point. The peak response of each patient during the study period to peptide GV1001 is also shown which confirms that each patient responded immunologically to GV1001 vaccination.
The patients were classed as either clinical responders or clinical non-responders based on their clinical response which included stable disease (SD), tumour regression (PR or CR) and unexpectedly long survival time. Both clinical responders and clinical non-responders were selected from the same or similar vaccination trials.

T cells (patient PBMCs) = assay: T-cell proliferation assay (3H-thymidine) of patient PBMC/T cells with hTERT peptides or transfected DC; type: cell-based, human
Method: FIG. 1 is a bar graph summarising hTERT T-cell responses detected in pancreas cancer patient vaccinated with DC transfected with hTERT mRNA. In samples from various time points throughout a vaccination schedule, T-cell responses against 24 overlapping hTERT 15-mer peptides were detected. Proliferation in response to peptide-loaded PBMC was measured by ^3H-thymidine incorporation. A stimulation index of >2 is considered an immune response.
Peripheral blood mononuclear cells (PBMCs) were obtained prior to the four standard vaccinations, after 5 weeks and after 12 weeks. PBMCs were also obtained before each monthly booster vaccination. The PBMCs were isolated and frozen as previously described (Kyte et al, 2005). Thawed PBMCs were stimulated once in vitro with tDCs (not with mockDCs) and cultured and then tested in T cell proliferation assays (^3H Thymidine) as previously described (Kyte et al 2006). The T cells were tested in triplicates. Irradiated tDCs and mock-transfected DC controls (mockDCs) were used or PBMC with or without hTERT peptide as APCs. Negative controls with T cells only were included.
PBMCs from various time points were stimulated with an overlapping hTERT 15-mer peptide library or a 30-mer hTERT peptide, all from ProImmune and then tested in proliferation assays as above using irradiated PBMCs as APCs as described in (Bernhardt et al 2006).
T-cell responses to a hTERT peptide library (including the polypeptides from Table 1) were determined for T-cells from 5 patients in addition to the patients reported in Examples 1 and 2. The methods were the same as previously described in Example 1 or in Bernhardt et al 2006. In brief, PBMCs from various time points during vaccination were stimulated with the overlapping hTERT peptide library prior to testing for specific T-cell responses in proliferation assays.
The proliferative T-cell responses of each patient to a series of peptides were then determined as explained in Example 1. The results are tabulated in Table 5 and are shown graphically in FIG. 14 in which the peptide designations are referenced in Table 6 (the results for peptides 726 and GV1001 are shown only for comparison).
as §1
Six patients who were clinical non-responders following a melanoma cancer diagnosis and a GV1001 peptide (SEQ ID NO. 10) vaccination were studied. These patients were all stage IV melanoma patients and included in the same GV1001 vaccination trial as melanoma patients P7 and P8 who were long term survivors (see Example 6). […] Five of the patients also experienced progressive disease and one patient, designated Melanoma P3, experienced some stabilization of the disease but still had short survival. The proliferative T-cell responses of each patient to a series of peptides were determined in the same manner as in Example 1, at one time point. The peak response of each patient during the study period to peptide GV1001 is also shown which confirms that each patient responded immunologically to GV1001 vaccination.

In the case of “EARPALLTSRLRFIPK (listed as Homo sapiens) [GV1001]”, the “Clinical Responder” value ([1]; patient Lung ca P1) is reported as “No”, the Clinical response ([1]; patient Lung ca P1) is reported as “PD” and the “Survival (Months)” value ([1]; patient Lung ca P1) is reported as 14 Months. The “Vaccine-specific T cell response at time-point tested” value (“Vaccine-specific T cell response” for short) ([1]; patient Lung ca P1) was “Yes”, the “Clinical Responder” value ([1]; patient Lung ca P2) was “No” and the Clinical response ([1]; patient Lung ca P2) was “PD”. The “Survival (Months)” value ([1]; patient Lung ca P2) was 6 Months, the “Vaccine-specific T cell response” value ([1]; patient Lung ca P2) was “Yes” and the “Clinical Responder” value ([1]; patient Lung ca P3) was “No”. For the same sequence, the “Survival (Months)” value ([1]; patient Lung ca P3) was 20 Months, the “Vaccine-specific T cell response” value ([1]; patient Lung ca P3) was “Yes” and the “Clinical Responder” value ([1]; patient Lung ca P4) was “No”. The “Survival (Months)” value ([1]; patient Lung ca P4) was 10 Months, the “Vaccine-specific T cell response” value ([1]; patient Lung ca P4) was “Yes” and the “Clinical Responder” value ([1]; patient Lung ca P5) was “Yes”. The Clinical response ([1]; patient Lung ca P5) was “alive, CR”, the “Vaccine-specific T cell response” value ([1]; patient Lung ca P5) was “Yes” and the “Survival (Months)” value ([1]; patient Lung ca P5, + signifies that the patient is still alive) was 106+ Months. The SI of response (T cells (patient PBMCs); all patients of Example 6) was greater than 2, the “immunological response of patients” value (T cells (patient PBMCs); all patients of Examples 1 to 8) was “All patients responded immunologically” and the “proliferative T-cell response (SI)” value (T cells (patient PBMCs); patient Colon ca P1, GV1001-vaccinated, clinical responder) was 105.1. For the same sequence, the “proliferative T-cell response (SI)” value (T cells (patient PBMCs); patient Lung ca P1, GV1001-vaccinated, clinical non-responder, one time point) was 0.9, the “Peak response GV1001” value (T cells (patient PBMCs); patient Lung ca P1, peak during study period) was 60.95 and the “proliferative T-cell response (SI)” value (T cells (patient PBMCs); patient Lung ca P2, GV1001-vaccinated, clinical non-responder, one time point) was 122.8. For the same sequence, the “Peak response GV1001” value (T cells (patient PBMCs); patient Lung ca P2, peak during study period) was 122.8, the “proliferative T-cell response (SI)” value (T cells (patient PBMCs); patient Lung ca P3, GV1001-vaccinated, clinical non-responder, one time point) was 1.4 and the “Peak response GV1001” value (T cells (patient PBMCs); patient Lung ca P3, peak during study period) was 161.6. For the same sequence, the “proliferative T-cell response (SI)” value (T cells (patient PBMCs); patient Lung ca P4, GV1001-vaccinated, clinical non-responder, one time point) was 1.2, the “Peak response GV1001” value (T cells (patient PBMCs); patient Lung ca P4, peak during study period) was 13.3 and the “proliferative T-cell response (SI)” value (T cells (patient PBMCs); patient Lung ca P5, GV1001-vaccinated, clinical responder) was 20.1. For the same sequence, the “proliferative T-cell response (SI)” value (T cells (patient PBMCs); patient Lung ca P6, DC/hTERT mRNA-vaccinated, clinical responder, high background) was 7.1, the “proliferative T-cell response (SI)” value (T cells (patient PBMCs); patient Melanoma P1, GV1001-vaccinated, clinical non-responder, one time point) was 1.4 and the “Peak response GV1001” value (T cells (patient PBMCs); patient Melanoma P1, peak during study period) was 26.0. The “proliferative T-cell response (SI)” value (T cells (patient PBMCs); patient Melanoma P2, GV1001-vaccinated, clinical non-responder, one time point) was 0.9, the “Peak response GV1001” value (T cells (patient PBMCs); patient Melanoma P2, peak during study period) was 38.7 and the “proliferative T-cell response (SI)” value (T cells (patient PBMCs); patient Melanoma P3, GV1001-vaccinated, clinical non-responder, one time point) was 1.8. The “Peak response GV1001” value (T cells (patient PBMCs); patient Melanoma P3, peak during study period) was 3.7, the “proliferative T-cell response (SI)” value (T cells (patient PBMCs); patient Melanoma P4, GV1001-vaccinated, clinical non-responder, one time point) was 1.2 and the “Peak response GV1001” value (T cells (patient PBMCs); patient Melanoma P4, peak during study period) was 10.7. The “proliferative T-cell response (SI)” value (T cells (patient PBMCs); patient Melanoma P5, GV1001-vaccinated, clinical non-responder, one time point) was 25.2, the “Peak response GV1001” value (T cells (patient PBMCs); patient Melanoma P5, peak during study period) was 35.4 and the “proliferative T-cell response (SI)” value (T cells (patient PBMCs); patient Melanoma P6, GV1001-vaccinated, clinical non-responder, one time point) was 21.4. For the same sequence, the “Peak response GV1001” value (T cells (patient PBMCs); patient Melanoma P6, peak during study period) was 122.0, the “proliferative T-cell response (SI)” value (T cells (patient PBMCs); patient Melanoma P7, GV1001-vaccinated, clinical responder) was 76.5 and the “proliferative T-cell response (SI)” value (T cells (patient PBMCs); patient Melanoma P8, GV1001-vaccinated, clinical responder) was 13.2. For the same sequence, the “proliferative T-cell response (SI)” value (T cells (patient PBMCs); patient Melanoma P9, non-vaccinated, spontaneous response) was 1.7 and the “proliferative T-cell response (SI)” value (T cells (patient PBMCs); patient Pancreas ca P1, DC/hTERT mRNA-vaccinated, clinical responder, high background) was 2.2.
